# Laboratory results: patent US20230087351A1, “METHYL 2-ALLYL-1 -METHYL-3-OXOINDOLINE-2-C[…] 9A-ALLYL-1,2,3,9A-TETRAHYDRO- 9H-PYRROLO[1,2-A]INDOL-9-ONE DERIVATIVES AND RELATED COMPOUNDS FOR USE AS F[…] FOR LABELLING OF DRUGS, AMINO ACIDS AN PROTEINS” (UNIVERSITY OF SALFORD, priority 2019, published 2023)
# Assays:
# [1] = target: μ-opioid receptors (Homo sapiens, UniProt P35372); details: relative to morphine; cited from earlier work
# [2] = target: δ-opioid receptors (Homo sapiens, UniProt P41143); details: relative to morphine; cited from earlier work
# Sequence of δ-opioid receptors (P41143 whole entry): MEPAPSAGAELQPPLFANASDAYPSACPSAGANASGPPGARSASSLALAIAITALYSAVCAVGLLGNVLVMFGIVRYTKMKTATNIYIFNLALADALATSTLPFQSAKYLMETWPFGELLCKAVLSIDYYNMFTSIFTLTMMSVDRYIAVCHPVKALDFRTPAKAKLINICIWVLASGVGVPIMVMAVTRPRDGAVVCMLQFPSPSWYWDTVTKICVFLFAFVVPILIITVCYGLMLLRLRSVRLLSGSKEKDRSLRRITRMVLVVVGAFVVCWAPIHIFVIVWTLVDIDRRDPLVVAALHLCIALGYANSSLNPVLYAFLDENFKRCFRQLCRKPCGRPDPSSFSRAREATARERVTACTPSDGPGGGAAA
# Sequence of μ-opioid receptors (P35372 whole entry): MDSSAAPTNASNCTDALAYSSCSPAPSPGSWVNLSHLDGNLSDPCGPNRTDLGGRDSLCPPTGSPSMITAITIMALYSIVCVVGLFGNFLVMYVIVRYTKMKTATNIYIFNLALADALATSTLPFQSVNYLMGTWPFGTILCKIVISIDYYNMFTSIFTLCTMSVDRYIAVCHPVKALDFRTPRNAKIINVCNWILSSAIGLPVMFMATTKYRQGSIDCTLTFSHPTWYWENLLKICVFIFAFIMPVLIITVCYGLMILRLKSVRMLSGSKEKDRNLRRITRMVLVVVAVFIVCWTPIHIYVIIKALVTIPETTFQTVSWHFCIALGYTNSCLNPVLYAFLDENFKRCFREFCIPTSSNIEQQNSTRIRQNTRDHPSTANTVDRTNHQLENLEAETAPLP
SMILES,melting point [°C],higher potency than morphine at μ-opioid receptors [1] [fold],higher potency than morphine at δ-opioid receptors [2] [fold]
C=CCC1(C(=O)OC)C(=O)c2ccccc2N1C (stereo not drawn),90 to 93,,
C=CCC1(C(=O)OC)C(=O)c2c(OC)cccc2N1C (stereo not drawn),125 to 127,,
C=CC(C)(C)C1(C(=O)OC)C(=O)c2c(OC)cccc2N1C (stereo not drawn),86 to 88,,
C=CC(C)C1(C(=O)OC)C(=O)c2c(OC)cccc2N1C (stereo not drawn),89 to 91,,
C=CCC1(C(=O)OC)C(=O)c2c(C)cccc2N1C (stereo not drawn),98 to 100,,
C=CCC1(C(=O)OC)C(=O)c2c(ccc3ccccc23)N1C (stereo not drawn),144 to 147,,
C=CCC1(C(=O)OC)C(=O)c2cc(OC)ccc2N1C (stereo not drawn),99 to 101,,
CC[C@@H]1CN2CC[C@]3(Nc4cccc(OC)c4C3=O)[C@@H]2C[C@@H]1/C(=C\OC)C(=O)OC [mitrogynine pseudoindoxyl],,20,35
